Data set [1] in a line: water absorption and agglomeration after being placed in the air for 24 hours. The format is physicochemical.
The conditions of data set [2]: TG. The method, then:
The crystal structure and thermal stability of anhydrous choline chloride single crystal product obtained in Experiment example 1 were analyzed, respectively.

Consider `CCC(=O)OCC[N+](C)(C)C.[Cl-]` [propionylcholine chloride], for which, in data set [1], the agglomeration entry is reported as “not agglomerated” and the water absorption amount was found to be 1.06 wt %.

As to `C[N+](C)(C)CCO.[I-]` [anhydrous choline iodide single crystal, choline iodide], in data set [1], the agglomeration result is recorded as “not agglomerated” and the water absorption amount stood at 2.30 wt %.

For `CC(=O)OCC[N+](C)(C)C.[Cl-]` [acetylcholine chloride], in data set [1], the agglomeration result was “not agglomerated” and the water absorption amount is recorded as 1.58 wt %.

As for `C[N+](C)(C)CCO.[Cl-]` [choline chloride], in data set [1], the agglomeration result was “not agglomerated” and the water absorption amount amounted to 2.58 wt %. In addition, in data set [2] (FIG. 5), the “initial temperature of thermal cracking” value is 350 °C and the “temperature at which the weight loss rate reaches the maximum” value amounted to 370 °C. Besides, in data set [2] (versus commercial product), the “thermal stability (comparison in words)” value is reported as “better than that of commercial choline chloride”. Besides, the “temperature at which weight loss began” value in data set [2] (weight loss ascribed to evaporation of water) was 330 °C.

For the compound `CCC(=O)OCC[N+](C)(C)C.[Br-]` [propionylcholine bromide], in data set [1], the agglomeration result is listed as “not agglomerated” and the water absorption amount was 0.77 wt %.

The values are drawn from patent US20200039918A1, “METHOD FOR PREPARING SINGLE CRYSTAL OF ANHYDROUS HALOGENATED CHOLINE OR DERIVATIVE THEREOF” (HEBEI UNIVERSITY OF SCIENCE AND TECHNOLOGY, priority 2017, published 2020).
